Measurements published in patent US20070167353A1, “PRODRUG COMPOSITION” (priority 2003, published 2007).
Where two headings read alike, the source gives them in different places.

Key:
HeLa cells [1] = details: 1 mM prodrug, pH 6.0, 45 minutes
in vitro [2] = details: human, Caco-2
physchem [3] = details: buffer, pH 7.4
in vitro [4] = details: human, plasma
[5] = Hydrolysis of gemcitabine prodrugs in phosphate buffer pH 7.4
HPEPT1 [6] = biological target: T1, HPEPT1 (Homo sapiens, UniProt P46059); assay: Inhibition of radiolabelled Gly-Sar uptake in DC5 cells overexpressing HPEPT1; format: cell-based; design: expressed in transfected cells; host or cells: HeLa cells overexpressing hPEPT1 (called 'HPEPT1 infected cells')
T1 sequence (P46059 1-708): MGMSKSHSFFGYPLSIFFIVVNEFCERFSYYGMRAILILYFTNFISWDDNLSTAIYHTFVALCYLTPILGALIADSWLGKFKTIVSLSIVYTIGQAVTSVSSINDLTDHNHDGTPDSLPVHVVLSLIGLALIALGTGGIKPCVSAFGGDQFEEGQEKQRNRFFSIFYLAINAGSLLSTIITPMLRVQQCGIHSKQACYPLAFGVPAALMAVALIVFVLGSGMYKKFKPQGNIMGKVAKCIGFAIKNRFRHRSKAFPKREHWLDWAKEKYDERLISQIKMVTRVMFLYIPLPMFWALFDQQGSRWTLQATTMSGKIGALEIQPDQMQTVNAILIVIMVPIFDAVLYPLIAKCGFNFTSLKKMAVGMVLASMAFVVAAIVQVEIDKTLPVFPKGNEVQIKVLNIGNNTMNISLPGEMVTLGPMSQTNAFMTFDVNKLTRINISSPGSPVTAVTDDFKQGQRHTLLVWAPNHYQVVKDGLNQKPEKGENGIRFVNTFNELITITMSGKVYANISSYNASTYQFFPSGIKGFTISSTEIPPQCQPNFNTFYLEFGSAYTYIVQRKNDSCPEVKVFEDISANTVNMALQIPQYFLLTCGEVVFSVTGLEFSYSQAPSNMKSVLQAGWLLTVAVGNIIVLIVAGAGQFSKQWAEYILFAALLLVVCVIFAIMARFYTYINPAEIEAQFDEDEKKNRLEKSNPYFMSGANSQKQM
Experimental: Amino acid prodrugs are tested for their interaction with the dipeptide transporter, HPEPT1, using tissue culture cells that are engineered to overexpress HPEPT1. In this example, the cells that overexpress HPEPT1, termed DC5, are a human meduloblastoma cell line that is stably transfected with a eukaryotic expression vector encoding HPEPT1. […] DC5 cells are plated at a density of 12,000 cells/well in 96-well tissue culture plates and allowed to grow for 2 days. The cells are washed once with 200 microliters of uptake buffer and aspirated. The plates are cooled to 4° C. and 25 ul of uptake buffer containing 125 nanomoles Gly-Sar (at a specific activity of 1 microcurie/micromole) is added. The uptake buffer also contains the prodrugs to be tested at concentrations ranging from 10 micromolar to 20 millimolar. The assay is initiated by placing the plate in a shaking water bath at 37° C. and is terminated after 10 min by rapid washing with multiple changes of 4° C. phosphate buffered saline (PBS). The radioactive Gly-Sar peptide that is transported by the hpept1 is extracted from the cell layer with 200 ul of a one to one mixture of methanol and water and is counted in 4 ml of CytoScint ES™ scintillation cocktail (ICN). The data are plotted as % Gly-Sar uptake of control (no competitive substrate) versus the competitive substrate concentration. […] Typically, values that are below 10 mM indicate that the drug interacts with transporter.

in vitro [7] = details: human, Caco-2, pH 7.4
HeLa cells [8] = details: control cultures not overexpressing hpept1, 50 micromolar, pH 6.0, 45 minutes
HPEPT1 [9] = biological target: T1, HPEPT1; details: human, pH 6
[10] = biological target: T2, biphenyl hydrolase-like enzyme (BPHL) (Homo sapiens, UniProt Q86WA6); format: biochemical
T2 sequence (Q86WA6 38-291): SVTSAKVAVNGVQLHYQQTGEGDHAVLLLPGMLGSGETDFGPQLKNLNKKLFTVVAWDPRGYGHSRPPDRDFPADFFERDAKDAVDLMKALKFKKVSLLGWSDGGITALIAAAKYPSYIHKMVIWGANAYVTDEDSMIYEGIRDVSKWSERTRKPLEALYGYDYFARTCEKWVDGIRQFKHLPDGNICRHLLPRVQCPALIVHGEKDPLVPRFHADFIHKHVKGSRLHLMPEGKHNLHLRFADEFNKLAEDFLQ

[11] = biological target: T3, human dipeptide transporter, hPept1 (Homo sapiens, UniProt P46059); details: human, pH 6
T3 sequence (P46059 1-708): T1 sequence (P46059 1-708)

physchem [12] = details: buffer, pH 7.4; remark: listed apart in the source

SMILES	HeLa control uptake (HeLa cells [1])	half-life (in vitro [2])	half-life (physchem [3])	half-life (in vitro [4])	half-life [5]	IC50 (HPEPT1 [6])	half-life (in vitro [7])	Uptake Control (HeLa cells [8])	Uptake (hPepT1) (HPEPT1 [9])	hPepT1/Control (HPEPT1 [9])	% of Control (VACV) [10]	HeLa/hPEPT1 uptake [11]	hPepT1/Control [11]	half-life (physchem [12])	IC50 (HPEPT1 [6]; inhibition of Gly-Sar uptake, DC5 cells overexpressing HPEPT1, 10 min, 37° C., read-out: DC5 IC50)
CC(C)[C@H](N)C(=O)OCCOCn1cnc2c(=O)[nH]c(N)nc21 [Valacyclovir]	11.6 ± 0.5 nmol/mg/45 min	0.545 ± 0.0117 h	16.5 ± 0.24 h	5.2 ± 0.41 h	17.1 ± 0.19 h	0.423 mM	0.462 ± 0.01 h	0.59 ± 0.06 nmole/mg/45 min	2.51 ± 0.28 nmole/mg/45 min	4.25	100.0%	221.2 ± 8.1	19.0		
CC(C)[C@H](N)C(=O)OCC(CO)OCn1cnc2c(=O)nc(N)[nH]c21 (some centres unmarked) [Valganciclovir]				5.05 ± 0.3 h			0.545 ± 0.0117 h							16.5 ± 0.24 h	5.23 mM
